Like-named read-outs stand apart in the source and are kept apart here.
What was measured:
[1] = Stability in acidic conditions (Britten-Robinson buffer, HPLC); assay type: physicochemical
Method: The stability of the compound in acidic conditions was determined at 37 °C in Britten-Robinson buffer which had been previously adjusted to pH 3.0, 5.0 or 7.0. The compound was dissolved in this buffer by supersonic waves, and the filtered solution was monitored by high performance liquid chromatography (HPLC) (Tosoh TSK-gel ODS-120T 4.6-250mm, CH₃CN/10 mM phosphate buffer (pH 6.0), 1 ml/min., room temperature (25 °C), detector ultraviolet (UV) 240-250 nm). Half-lives (T1/2) were determined from linear regression of the concentration vs. time (h).

HCl-ethanol erosion = HCl-ethanol erosion model (cytoprotective action on gastrointestinal tract); assay type: in vivo, SD rats; conditions: Rattus norvegicus, 0.5 h; oral, 30 min. before HCl-ethanol mixture; total length of erosions; read-out: ED₅₀
Method: To a mixture of 2-[(2-Isobutylamino)benzylthio]imidazole (1 g) obtained in (i) above, chloroform (40 ml), and methanol (10 ml) was portionwise added under chilling with ice, m-chloroperbenzoic acid (equivalent molar amount). After completion of the reaction was confirmed using TLC, the reaction mixture was made alkaline by addition of saturated aqueous sodium hydrogen carbonate and extracted with chloroform. The chloroform portion was then treated successively with three portions of 10 ml of 0.1 N aqueous NaOH and one portion of 20 ml of 0.1 N aqueous NaOH to transfer the desired product into the aqueous portions. The obtained four aqueous portions were separately made ammonia-alkaline by addition of 20% aqueous […]. The precipitated crystals were collected, washed sufficiently with ether, and dried to give 0.6 g (yield: 56.5%) of the desired product as a white crystalline powder. […]
SD rats were fested for 24 hours. […] Length (mm) of each erosion was measured, and the total length (mm) of the erosions observed in one rat was calculated. […]

Row | half-life ([1]; pH 3.0, 37°C, Britten-Robinson buffer, read-out: (T1/2) (converted)) [min] | half-life ([1]; pH 5.0, 37°C, Britten-Robinson buffer, read-out: (T1/2) (converted)) [min] | half-life ([1]; pH 7.0, 37°C, Britten-Robinson buffer, read-out: (T1/2) (converted)) [min] | half-life ([1]; britten-robinson buffer, pH 3) [min] | half-life ([1]; britten-robinson buffer, pH 5) [min] | half-life ([1]; britten-robinson buffer, pH 7) [min] | SMILES | ED50 (HCl-ethanol erosion) [mg/kg]
1 | 3 | 20.4 | 1620 |  |  |  | COc1ccc2[nH]c([S+]([O-])Cc3ncc(C)c(OC)c3C)nc2c1 (stereo not shown) [Omeprazole, reference compound] | 
2 |  |  |  | 1.8 | 55.8 | 3780 | CC(C)CNc1ccccc1C[S+]([O-])c1ncc[nH]1 (stereo not shown) [Imidazole derivative A, 2-[(2-Isobutylamino)benzylsulfinyl]imidazole] | 3.6

Reference: patent publication EP0584588A1, “Anti-ulcer composition containing imidazole derivative” (NIPPON CHEMIPHAR CO., LTD., priority 1992, dated 1994)
